Patent US9855256B2, “Cyclooxygenase inhibitor and calcium channel antagonist compositions and methods for use in urological procedures” (Omeros Corporation, priority 2005, dated 2018)

Experiments:
[1] = tested on: Isolated bladder smooth muscle strips; experiment: Bladder strip contractility (bradykinin-induced contraction), Examples I and II; type: cell-based, rat
PGE2 = details: 10 μM perfusion 60 min then saline 30 min; bladders harvested at 90 min
[2] = tested on: overactive bladder function; experiment: Acetic-acid overactive bladder model, intravesical local delivery, cystometry, Example V; details: 0.2% acetic acid
Protocol: In this model, acute inflammation of the bladder is produced by using 0.2% acetic acid in saline as the bladder perfusion fluid and cystometry under anesthesia is performed after a recovery period from the surgical procedure.
The animals were anesthesized and bladder catheters were surgically implanted to allow irrigation of the test agents. The following cystometry parameters were monitored: intercontraction interval (ICI), trigger pressure (TP), micturition pressure (MP) and micturition volume (MV) using a Med Associates Cystometry Station and software program. […] Following the saline period, the rat bladder was infused with test agent in saline containing 0.2% acetic acid for 20 min followed by the collection of 7 representative ICI intervals for analysis.
Five to seven animals were normally tested in each group. Acidified saline served as the control. All infusion solutions were prepared fresh on the day of the experiment before use.

urinary bladder = experiment: In vivo rat cystometry model, 0.2% acetic acid infusion, intravenous drug; details: 10 mg/kg i.v.
Protocol: The rats were anesthetized with urethane at 1.2 g/kg i.p. in 5 ml/kg. A polyethylene catheter (PE50) was implanted into the bladder for saline or acetic acid infusion through a 3-way stopcock. A pressure transducer was connected for measurements of intravesical pressure. Warm (37° C.) saline was infused into the bladder at a constant rate of […] (1 ml/hour) until cystometry became stable (no less than 60 minutes). Thereafter, 0.2% acetic acid was infused into the urinary bladder. Aspirin (10 mg/kg i.v.) and vehicle were administered intravenously via a PE-10 catheter in the femoral vein at 5 minutes after infusion of acetic acid was started and at the end of first micturition cycle. Dunnett's test was applied for comparison between the time before and after test substance or vehicle treatment. To ascertain differences between the test substance and the vehicle control group, an unpaired Student's t test was used. Differences are considered significant at […].

CC(C(=O)O)c1cccc(C(=O)c2ccccc2)c1 (stereo not drawn) [Ketoprofen, 3-benzoyl-α-methylbenzeneacetic acid]
effect on maximal tension ([1]; ketoprofen 0.25-10 μM): no apparent effect | bladder tissue PGE2 levels (PGE2): 83±22 pg/mg protein

COC(=O)C1=C(C)NC(C)=C(C(=O)OC)C1c1ccccc1[N+](=O)[O-] [Nifedipine, 1,4-dihydro-2,6-dimethyl-4-(2-nitrophenyl)-3,5-pyridinedicarboxylic acid dimethyl ester]
type of antagonism upon bradykinin-induced contractile responses ([1]; single agents, 10 min incubation): noncompetitive | concentration of maximal effects on shortening of the ICI ([2]; in irrigation buffer, female rats): ~1 µM | ICI plateau at higher concentrations, of baseline ([2]; nifedipine above 1 μM): approximately 75%

CC(=O)Oc1ccccc1C(=O)O [aspirin]
bladder capacity (urinary bladder): parallel changes | effect on acetic acid induced reduction in the intercontraction interval (ICI) (urinary bladder): gradual time-dependent inhibition | micturition pressure (urinary bladder): not affected | threshold pressure (urinary bladder): not affected
